In test [1] the test system is amyloglucosidase (EC 3.2.1.3). The test can be described thus: Initial screening assay for enzyme inhibition, amyloglucosidase. Particulars: amyloglucosidase, 2% MeOH. The format is biochemical, Aspergillus niger. How it is done: (§1) Optically pure enantiomers of avarol were synthetically prepared. A survey of potential inhibitory activity by avarol against twelve glycosidases was performed according to general procedures^15 (see experimental section). The enzymes tested and their biological sources are listed in Table 1 along with any pertinent references found for a given enzyme. In order to determine a working range for enzyme and substrate concentrations in which the rate of product formation was linear and steady-state kinetics were applicable, initial rate studies with varying substrate concentrations were performed in the absence of inhibitor. The Michaelis constants (Km 's) and Vmax values for these enzymes were determined from these plots using standard graphical analysis procedures as described in ref. 17 and are summarized in Table 2.
(§2) Enzymatic Assays. Piperazine-N,N'-bix-(2-ethanesulfonic acid)(PIPES) buffer, enzymes, and substrates were purchased from Sigma and used as received. Buffer solutions and enzymes (desiccated) were stored at 4° C. p-Nitrophenyl glycoside substrates were stored desiccated at -20° C. Enzyme inhibition assays and initial rate studies were carried out with the appropriate p-nitrophenyl glycoside substrates following the general procedure of Kajimoto et al., J. Am. Chem. Soc. 113:6187 (1991) with the exception that amyloglucosidase (EC 3.2,1.3, Asp. niger) was assayed following the method of Saul et al., Arch. Biochem. Biophys. 221:593 (1983). Assays were performed in a Perkin-Elmer Lambda Array 3840 Spectrophotometer using the built-in drive method (resolution=0.25, average=8) in a quartz cuvette (1 cm pathlength). Background absorption spectra were acquired using millipore filtered water as medium. Steady-state kinetics were maintained by adjusting the amount of enzyme used in each assay so that less than 10% of the substrate was converted to product for the duration of the reaction. Reactions were monitored at 400 nm (the absorbance of the p-nitrophenol product, ε=3204.5 M^-1 cm^-1) for a given amount of time and the initial rates were calculated and expressed as μmols p-nitrophenol formed per unit enzyme per second. Absportion readings for control reactions were corrected for the small baseline absorbance at time zero. Small discrepancies between time zero absorbance readings in a given inhibition assay and a time zero reading in a control assay were used to correct the overall absorbance change calculated in the inhibition assay. Inhibitors were dissolved in uv-grade absolute methanol.
Typical assay: A 1.5-mL quartz cuvette was charged with 940 μL of PIPES-NaOAc buffer solution (pH 6.56), 20 μL of inhibitor solution, and 20 μL of enzyme solution. The result was mixed well and then equilibrated at 37° C. for two minutes. 20 μL of the appropriate p-nitrophenyl glycoside solution was then added to initiate the reaction with rapid mixing. The reaction was monitored at 400 nm for 1 min and the absorbance change was used to calculate the initial hydrolysis rate. Lineweaver-Burk plots were constructed by repeating this procedure with varying substrate and inhibitor concentrations.

Test [2] has as its system α-galactosidase (EC 3.2.1.22). As to the kind of experiment: Initial screening assay for enzyme inhibition, α-galactosidase (E. coli). The format is biochemical, Escherichia coli. The conditions noted are these: 2% MeOH. How it is done:
as §1
as §2, with “Inhibitors were dissolved in uv-grade absolute methanol.” left out
(§3) Typical assay: A 1.5-mL quartz cuvette was charged with 940 μL of PIPES-NaOAc buffer solution (pH 6.56), 20 μL of inhibitor solution, and 20 μL of enzyme solution. […] The reaction was monitored at 400 nm for 1 min and the absorbance change was used to calculate the initial hydrolysis rate. […]

Test [3] concerns the target T1, α-mannosidase (EC 3.2.1.24) (Canavalia ensiformis, UniProt C0HJB3).
T1 construct: 66 and 44 kDa subunits cleaved from one precursor
T1 sequence (C0HJB3 1-981): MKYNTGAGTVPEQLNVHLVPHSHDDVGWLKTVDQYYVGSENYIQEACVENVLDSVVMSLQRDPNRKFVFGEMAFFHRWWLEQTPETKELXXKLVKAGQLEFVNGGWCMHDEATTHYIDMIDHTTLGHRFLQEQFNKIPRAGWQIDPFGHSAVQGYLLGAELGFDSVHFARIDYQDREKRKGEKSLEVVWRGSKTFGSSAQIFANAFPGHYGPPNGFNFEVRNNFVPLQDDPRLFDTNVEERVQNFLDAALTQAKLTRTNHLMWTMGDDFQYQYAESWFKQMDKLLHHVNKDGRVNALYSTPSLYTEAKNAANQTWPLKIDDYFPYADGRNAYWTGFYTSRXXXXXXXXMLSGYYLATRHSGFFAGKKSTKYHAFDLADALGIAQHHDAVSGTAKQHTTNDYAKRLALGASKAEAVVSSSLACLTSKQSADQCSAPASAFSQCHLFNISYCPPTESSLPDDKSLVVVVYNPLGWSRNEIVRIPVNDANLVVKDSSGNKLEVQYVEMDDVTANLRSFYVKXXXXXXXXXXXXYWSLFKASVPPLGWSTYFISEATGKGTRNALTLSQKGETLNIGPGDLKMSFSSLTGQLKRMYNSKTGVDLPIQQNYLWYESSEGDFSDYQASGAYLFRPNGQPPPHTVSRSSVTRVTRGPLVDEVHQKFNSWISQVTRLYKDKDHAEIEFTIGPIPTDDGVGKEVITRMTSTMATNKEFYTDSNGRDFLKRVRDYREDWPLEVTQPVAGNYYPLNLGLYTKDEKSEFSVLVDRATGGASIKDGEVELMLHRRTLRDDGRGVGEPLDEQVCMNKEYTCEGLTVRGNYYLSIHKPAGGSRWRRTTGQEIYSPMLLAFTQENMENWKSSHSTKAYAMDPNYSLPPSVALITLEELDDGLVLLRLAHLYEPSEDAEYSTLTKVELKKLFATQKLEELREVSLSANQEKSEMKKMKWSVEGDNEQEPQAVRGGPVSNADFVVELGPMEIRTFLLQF
The test can be described thus: Initial screening assay for enzyme inhibition, α-mannosidase. The class given is biochemical, jack beans. Particulars: for remaining activity at 10 µM: α-mannosidase, 10 μM inhibitor, 2% MeOH, read-out: % Enzyme activity relative to control. How it is done:
as §1
Initial screening assays with the enantiomeric avarols indicated significant activity by these compounds against only two of the twelve enzymes studies. […] This can occur when the two species compete for the same site or nearby sites on the enzyme. The equilibria that describe competitive inhibition are shown below. [drawing 3]
Enzymatic Assays. […] Reactions were monitored at 400 nm (the absorbance of the p-nitrophenol product, ε=3204.5 M^-1 cm^-1) for a given amount of time and the initial rates were calculated and expressed as μmols p-nitrophenol formed per unit enzyme per second. Absportion readings for control reactions were corrected for the small baseline absorbance at time zero. Small discrepancies between time zero absorbance readings in a given inhibition assay and a time zero reading in a control assay were used to correct the overall absorbance change calculated in the inhibition assay. […]
as §3

Test [4] has as its target T2, β-galactosidase (EC 3.2.1.23, grade XI) (Aspergillus oryzae, UniProt Q2UCU3).
T2 construct: purchased Sigma; host or cells: Aspergillus oryzae
The test can be described thus: Initial screening assay for enzyme inhibition, β-galactosidase (Asp. oryzae). The format is biochemical. The conditions noted are these: 2% MeOH, read-out: % Enzyme activity relative to control. The procedure: as §1
as §2, with “Inhibitors were dissolved in uv-grade absolute methanol.” left out
as §3

For test [5], the system named is β-N-acetylglucosaminidase (EC 3.2.1.30). As to the kind of experiment: Initial screening assay for enzyme inhibition, β-N-acetylglucosaminidase. The format is biochemical, bovine kidney. The conditions noted are these: 2% MeOH. The procedure:
as §1
as §2, with “Inhibitors were dissolved in uv-grade absolute methanol.” left out
as §3

T2 sequence (Q2UCU3 19-1005): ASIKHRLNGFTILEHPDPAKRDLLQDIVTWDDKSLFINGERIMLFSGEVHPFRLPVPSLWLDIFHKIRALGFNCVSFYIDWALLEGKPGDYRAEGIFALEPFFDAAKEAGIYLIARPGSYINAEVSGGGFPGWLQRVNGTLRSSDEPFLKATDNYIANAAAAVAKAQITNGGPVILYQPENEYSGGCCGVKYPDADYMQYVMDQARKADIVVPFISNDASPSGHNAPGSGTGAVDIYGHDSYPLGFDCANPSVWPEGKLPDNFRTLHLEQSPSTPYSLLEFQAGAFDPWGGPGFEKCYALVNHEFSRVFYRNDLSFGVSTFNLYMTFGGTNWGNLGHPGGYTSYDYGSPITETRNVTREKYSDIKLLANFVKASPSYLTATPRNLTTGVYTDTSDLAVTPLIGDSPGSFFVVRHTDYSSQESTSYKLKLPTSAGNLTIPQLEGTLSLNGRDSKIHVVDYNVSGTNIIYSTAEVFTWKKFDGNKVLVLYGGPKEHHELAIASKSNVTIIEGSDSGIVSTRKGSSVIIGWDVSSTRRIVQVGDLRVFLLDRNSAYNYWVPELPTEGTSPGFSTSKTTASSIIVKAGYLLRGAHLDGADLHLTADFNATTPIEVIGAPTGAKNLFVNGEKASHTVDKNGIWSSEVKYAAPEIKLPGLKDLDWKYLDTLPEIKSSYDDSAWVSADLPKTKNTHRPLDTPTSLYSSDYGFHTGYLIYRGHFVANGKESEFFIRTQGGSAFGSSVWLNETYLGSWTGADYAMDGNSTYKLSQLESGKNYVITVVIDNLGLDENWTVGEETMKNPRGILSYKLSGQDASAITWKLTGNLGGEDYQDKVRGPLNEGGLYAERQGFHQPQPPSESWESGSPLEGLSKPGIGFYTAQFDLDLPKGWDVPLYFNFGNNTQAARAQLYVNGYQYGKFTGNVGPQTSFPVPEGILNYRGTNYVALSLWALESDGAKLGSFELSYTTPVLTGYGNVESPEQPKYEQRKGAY

Take `CC1=CCC[C@@H]2[C@@](C)(Cc3cc(O)ccc3O)[C@H](C)CC[C@@]12C` [(-)-avarol]: the results for the “% Enzyme activity relative to control” value in test [1] (20 μM inhibitor), in test [2] (20 μM inhibitor) and in test [5] (10 μM inhibitor) were 94%, 94% and 89%, respectively. Besides, the “activity versus naturally-occurring enantiomer, α-mannosidase (in words)” value in test [3] (versus (+)-avarol) is “significantly more active than the naturally-occurring enantiomer”. Besides, in test [3], the remaining activity at 10 µM amounted to 47%. For the same compound, in test [4] (20 μM inhibitor), the remaining activity at 20 µM was 99%.

On to `CC1=CCC[C@H]2[C@](C)(Cc3cc(O)ccc3O)[C@@H](C)CC[C@]12C` [(+)-avarol, (+)-Avarol], for which the “% Enzyme activity relative to control” value in test [1] (40 μM inhibitor) came out at 113%; in test [2] (40 μM inhibitor), 90%; in test [5] (20 μM inhibitor), 102%. Also, the remaining activity at 10 µM in test [3] came to 90%. Moreover, in test [4] (40 μM inhibitor), the remaining activity at 40 µM was 100%.

The values above are taken from US6075057A, “Inhibition of carbohydrates metabolism by quinone compounds” (priority 1997, dated 2000).
